# Reference: patent US20200316213A1, “MACROMOLECULAR PLATFORM FOR TARGETING SCAVENGER RECEPTOR A1” (THE UNITED STATES OF AMERICA, AS REPRESENTED BY THE …, priority 2017, published 2020)
# What was measured:
# in vivo = conditions: male, Sprague-Dawley, rat, iv, 10 mg/kg
# [1] = male, Sprague-Dawley, rat, in vivo, iv, 10 mg/kg
# scavenger receptor A1 = target: T1, scavenger receptor A1 (Mus musculus, UniProt P30204); experiment: Competitive inhibition of polymer-488 cell uptake by poly I / poly C in Raw 264.7 macrophages; assay type: cell-based; conditions: for inhibition of scavenger receptor interaction of polymer-488 (fluorescence): various concentrations of polymer-488 with inhibitor, Raw 264.7 macrophages (FIG. 3); for inhibition of polymer-488 fluorescence: various inhibitor concentrations, polymer-488 concentration constant, 37° C. 3 hours (FIG. 4)
# T1 construct: endogenous in cells; host or cells: Raw 264.7 macrophages
# T1 sequence (P30204 1-458): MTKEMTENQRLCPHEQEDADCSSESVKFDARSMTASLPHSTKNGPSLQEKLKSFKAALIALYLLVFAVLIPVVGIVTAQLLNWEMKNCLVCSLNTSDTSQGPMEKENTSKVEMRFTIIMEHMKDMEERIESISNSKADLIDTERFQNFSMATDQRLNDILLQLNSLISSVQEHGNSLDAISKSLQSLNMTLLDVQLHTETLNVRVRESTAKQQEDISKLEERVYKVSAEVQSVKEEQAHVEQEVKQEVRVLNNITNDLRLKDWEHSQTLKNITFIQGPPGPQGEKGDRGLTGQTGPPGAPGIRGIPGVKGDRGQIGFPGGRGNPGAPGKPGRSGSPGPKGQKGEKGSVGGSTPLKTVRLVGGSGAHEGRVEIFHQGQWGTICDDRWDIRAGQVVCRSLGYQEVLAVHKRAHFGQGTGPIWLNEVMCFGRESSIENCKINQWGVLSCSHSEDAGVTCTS
# Experimental: The fluorescently labelled poly(L-lysine succinylated) was also tested for cell uptake in a macrophage cell line Raw 264.7 in the presence of competitive inhibitors and relevant controls. […] At higher concentrations of polymer-488, fluorescence is seen due to competing off the poly I.
# In a follow up study, cells were treated with various concentrations of either poly I or poly C while polymer-488 concentration remained constant. In this study, Raw 264.7 cells were incubated overnight at 400,000 cells/mL. The cells were treated with various concentrations of polymer-488 and either 200 μg/mL poly I, 200 μg/mL poly C, or no inhibitor. The cells were incubated at 37° C. for 3 hours, washed 3 times with media, and fluorescence measured.
Tmax (in vivo),Cmax (in vivo; Cmax),Tlast [1],inhibition of polymer-488 fluorescence (scavenger receptor A1),Compound,inhibition of scavenger receptor interaction of polymer-488 (fluorescence) (scavenger receptor A1)
4 h,86.7 ng/g,96 h,–,"Nc1nc(=O)n([C@@H]2CS[C@H](CO)O2)cc1F [Emtricitabine, emtricitabine]",–
–,–,–,virtually no inhibition of fluorescence,polycytidylic acid [poly C],not with poly C
–,–,–,dose-dependent inhibition,polyinosinic acid [poly I],inhibition of scavenger receptor interaction
